{"source": "paper PMC5600712", "about": "(ACS chemical biology, 2017)", "origin": "cited, not measured here", "key": {"class I HDACs": {"tested_on": "class I HDACs", "conditions": "class I compared with class II HDACs"}, "proteasome": {"tested_on": "proteasome", "conditions": "α,β-epoxyketone proteasome inhibitor"}}, "data": [{"compound": "HC toxin", "values": [{"measurement": "selectivity of binding, class I versus class II HDACs", "setting": "class I HDACs", "value": "tighter binding of these inhibitors to class I HDACs"}]}, {"compound": "CC(C)C[C@H](NC(=O)[C@H](CCc1ccccc1)NC(=O)CN1CCOCC1)C(=O)N[C@@H](Cc1ccccc1)C(=O)N[C@@H](CC(C)C)C(=O)[C@@]1(C)CO1", "note": "[carfilzomib]", "values": [{"measurement": "covalent adduct formation with proteasome", "setting": "proteasome", "value": "forms a covalent adduct to block proteasome function"}]}]}
